Reference: US20210330611A1, “THERAPY FOR NEUROLOGICAL DISEASES/DISORDERS” (priority 2020, published 2021)
Like-named read-outs stand apart in the source and are kept apart here.

Assays:
primary rat microglia [1] = test system: primary rat microglia;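 on Fibrin % cell toxicity: share of dead cells sized under 150 µm2 at 10 µM in fibrin-stimulated microglia HTS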
[2] = test system: fibrin-induced microglia activation; assay: Image-based assay of fibrin-induced microglia activation (HTS and dose response); type: cell-based, rat; details: for inhibition at 10 µM: Rattus norvegicus, Microglia, read-out: Fibrin % inhibition
primary rat microglia [3] = test system: primary rat microglia; remark: listed apart in the source;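 on Fibrin % cell toxicity: share of dead cells sized under 150 µm2 at 10 µM in fibrin-stimulated microglia HTS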
[4] = test system: LPS-induced microglia activation; assay: Image-based assay of LPS-induced microglia activation (HTS and dose response); type: cell-based, rat; details: for inhibition at 10 µM: Rattus norvegicus, Microglia, read-out: LPS % inhibition
[5] = test system: fibrin- and LPS-induced microglia activation; assay: cells; type: cell-based, rat
[6] = primary microglia HTS, fibrin stimulation, increased cell size (>800 μm^2) as marker of activation
[7] = 48 h, primary microglia HTS, LPS stimulation, increased cell size (>800 μm^2) as marker of activation
[8] = quadrant by fibrin and LPS inhibition in HTS of 1907 compounds
[9] = primary microglia HTS, fibrin stimulation, activation = cell size >800 μm2
[10] = 48 h, primary microglia HTS, LPS stimulation, activation = cell size >800 μm2
[11] = primary microglia HTS, fibrin stimulation, compounds at 10 μM
[12] = primary microglia HTS, LPS stimulation, compounds at 10 μM
[13] = classification by fibrin and LPS inhibition, HTS at 10 μM
[14] = primary HTS, 10 μM, fibrin-stimulated primary microglia
[15] = primary HTS, 10 μM, LPS-stimulated primary microglia
[16] = quadrant by fibrin and LPS inhibition, HTS at 10 μM
[17] = primary microglia HTS, 10 μM, fibrin-stimulated, cell size >800 μm^2 as marker of activation
[18] = primary microglia HTS, 10 μM, LPS-stimulated, cell size >800 μm^2 as marker of activation
[19] = HTS of 1907 compounds, quadrant by fibrin and LPS inhibition

Cc1cccc(Nc2ccccc2C(=O)O)c1C [Mefenamic Acid]
LPS % cell toxicity (primary rat microglia [1]; rat): 1%
inhibition at 10 µM [2, 6]: -6%
Fibrin % cell toxicity (primary rat microglia [3]; rat): 1%
inhibition at 10 µM [4, 7]: 3%
Quadrant (FIG. 5b) [5, 8]: Q4

CCCN[C@H]1CCc2nc(N)sc2C1 [Pramipexole]
LPS % cell toxicity (primary rat microglia [1]; rat): 0%
inhibition at 10 µM [2]: -19%
Fibrin % cell toxicity (primary rat microglia [3]; rat): 1%
inhibition at 10 µM ([4]; 48 h): 1%
Quadrant (FIG. 5b) [5]: Q4

COc1c2occc2cc2ccc(=O)oc12 [Methoxsalen]
LPS % cell toxicity (primary rat microglia [1]; rat): 0%
inhibition at 10 µM [2, 6]: -31%
Fibrin % cell toxicity (primary rat microglia [3]; rat): 0%
inhibition at 10 µM [4, 7]: 14%
Quadrant (FIG. 5b) [5, 8]: Q4

OC(Cn1cncn1)(Cn1cncn1)c1ccc(F)cc1F [Fluconazole]
LPS % cell toxicity (primary rat microglia [1]; rat): 0%
inhibition at 10 µM [2]: 3%
Fibrin % cell toxicity (primary rat microglia [3]; rat): 0%
inhibition at 10 µM ([4]; 48 h): 19%
Quadrant (FIG. 5b) [5]: Q4

CC(C)(C(=O)c1cccnc1)c1cccnc1 [Metyrapone]
LPS % cell toxicity (primary rat microglia [1]; rat): 0%
inhibition at 10 µM [2, 6]: -60%
Fibrin % cell toxicity (primary rat microglia [3]; rat): 1%
inhibition at 10 µM [4, 7]: 39%
Quadrant (FIG. 5b) [5, 8]: Q4

CC1(C)C[C@@H]1C(=O)N/C(=C\CCCCSC[C@H](N)C(=O)O)C(=O)O [Cilastatin]
LPS % cell toxicity (primary rat microglia [1]; rat): 0%
inhibition at 10 µM [2]: -6%
Fibrin % cell toxicity (primary rat microglia [3]; rat): 1%
inhibition at 10 µM [4]: 2%
Quadrant (FIG. 5b) [5]: Q4

O=NN(CCCl)C(=O)NC1CCCCC1 [Lomustine]
LPS % cell toxicity (primary rat microglia [1]; rat): 1%
inhibition at 10 µM [2, 9]: 0%
Fibrin % cell toxicity (primary rat microglia [3]; rat): 1%
inhibition at 10 µM [4, 10]: 19%
Quadrant (FIG. 5b) [5, 8]: Q4

CN(C)CC(c1ccc(O)cc1)C1(O)CCCCC1 (centres unmarked) [Desvenlafaxine]
LPS % cell toxicity (primary rat microglia [1]; rat): 1%
inhibition at 10 µM [2, 11]: 13%
Fibrin % cell toxicity (primary rat microglia [3]; rat): 1%
inhibition at 10 µM [4, 12]: 3%
Quadrant (FIG. 5b) [5, 13]: Q4

CCN[C@H]1C[C@H](C)S(=O)(=O)c2sc(S(N)(=O)=O)cc21 [Dorzolamide]
LPS % cell toxicity (primary rat microglia [1]; rat): 1%
inhibition at 10 µM [2]: -40%
Fibrin % cell toxicity (primary rat microglia [3]; rat): 1%
inhibition at 10 µM [4]: 15%
Quadrant (FIG. 5b) [5]: Q4

NC[C@H]1O[C@H](O[C@H]2[C@H](O)[C@@H](O[C@H]3O[C@H](CO)[C@@H](O)[C@H](N)[C@H]3O)[C@H](N)C[C@@H]2N)[C@H](O)[C@@H](O)[C@@H]1O.O=S(=O)(O)O [Kanamycin Sulfate, Kanamycin A Sulfate]
LPS % cell toxicity (primary rat microglia [1]): 1%
Fibrin % inhibition [2]: −13%
Fibrin % cell toxicity (primary rat microglia [3]): 0%
LPS % inhibition [4]: 20%
Quadrant (FIG. 5b) [5]: Q4

Nc1nc(Cl)nc2c1ncn2[C@H]1C[C@H](O)[C@@H](CO)O1 [Cladribine]
LPS % cell toxicity (primary rat microglia [1]; rat): 0%
inhibition at 10 µM [2, 14]: -23%
Fibrin % cell toxicity (primary rat microglia [3]; rat): 1%
inhibition at 10 µM [4, 15]: 6%
Quadrant (FIG. 5b) ([5]; primary HTS, 10 μM): Q4

CCN(CC)CCNC(=O)c1c(C)[nH]c(/C=C2\C(=O)Nc3ccc(F)cc32)c1C [Sunitinib]
LPS % cell toxicity (primary rat microglia [1]; rat): 27%
inhibition at 10 µM [2, 11]: 106%
Fibrin % cell toxicity (primary rat microglia [3]; rat): 75%
inhibition at 10 µM [4, 12]: 101%
Quadrant (FIG. 5b) [5, 16]: Q2

CC[C@H]1[C@@H]2C[C@H]3[C@@H]4N(C)c5ccccc5[C@]45C[C@@H]([C@H]2[C@H]5O)N3[C@@H]1O [Ajmaline]
LPS % cell toxicity (primary rat microglia [1]; rat): 0%
inhibition at 10 µM [2, 11]: -6%
Fibrin % cell toxicity (primary rat microglia [3]; rat): 1%
inhibition at 10 µM [4, 12]: 13%
Quadrant (FIG. 5b) [5, 16]: Q4

Oc1cccc2cccnc12 [Oxyquinoline]
LPS % cell toxicity (primary rat microglia [1]; rat): 57%
inhibition at 10 µM [2]: 117%
Fibrin % cell toxicity (primary rat microglia [3]; rat): 80%
inhibition at 10 µM [4]: 116%
Quadrant (FIG. 5b) [5]: Q2

CC(=O)NC[C@H]1CN(c2ccc(N3CCOCC3)c(F)c2)C(=O)O1 [Linezolid]
LPS % cell toxicity (primary rat microglia [1]; rat): 0%
inhibition at 10 µM [2]: -18%
Fibrin % cell toxicity (primary rat microglia [3]; rat): 1%
inhibition at 10 µM ([4]; 48 h): 19%
Quadrant (FIG. 5b) [5]: Q4

O=c1[nH]cnc2c1ncn2[C@H]1CC[C@@H](CO)O1 [Didanosine]
LPS % cell toxicity (primary rat microglia [1]; rat): 0%
inhibition at 10 µM [2, 11]: -8%
Fibrin % cell toxicity (primary rat microglia [3]; rat): 1%
inhibition at 10 µM [4, 12]: -2%
Quadrant (FIG. 5b) [5, 13]: Q4

CC(=O)C1C(=O)C=C(C)OC1=O (centres unmarked) [Dehydroacetic Acid]
LPS % cell toxicity (primary rat microglia [1]; rat): 0%
inhibition at 10 µM [2, 11]: -36%
Fibrin % cell toxicity (primary rat microglia [3]; rat): 0%
inhibition at 10 µM [4, 12]: 2%
Quadrant (FIG. 5b) [5, 13]: Q4

OC(CCN1CCCCC1)(c1ccccc1)C1CCCCC1 (centres unmarked) [Trihexyphenidyl]
LPS % cell toxicity (primary rat microglia [1]; rat): 1%
inhibition at 10 µM [2]: 5%
Fibrin % cell toxicity (primary rat microglia [3]; rat): 1%
inhibition at 10 µM [4]: 14%
Quadrant (FIG. 5b) [5]: Q4

CC(C)(O)c1ccccc1CC[C@@H](SCC1(CC(=O)O)CC1)c1cccc(/C=C/c2ccc3ccc(Cl)cc3n2)c1 [Montelukast]
LPS % cell toxicity (primary rat microglia [1]; rat): 0%
Fibrin % inhibition [2]: −5%
Fibrin % cell toxicity (primary rat microglia [3]; rat): 1%
inhibition at 10 µM ([4]; 48 h): 12%
Quadrant (FIG. 5b) [5]: Q4

CN(C)c1cnccn1.O=S(=O)(O)O [Ampyzine Sulfate]
LPS % cell toxicity (primary rat microglia [1]): 1%
Fibrin % inhibition ([2]; 10 µM): −18%
Fibrin % cell toxicity (primary rat microglia [3]): 0%
LPS % inhibition ([4]; 10 µM): 11%
Quadrant (FIG. 5b) [5]: Q4

O=C(O)c1cc(/N=N/c2ccc(S(=O)(=O)Nc3ccccn3)cc2)ccc1O [Sulfasalazine]
LPS % cell toxicity (primary rat microglia [1]; rat): 0%
inhibition at 10 µM [2, 17]: -29%
Fibrin % cell toxicity (primary rat microglia [3]; rat): 0%
inhibition at 10 µM [4, 18]: 13%
Quadrant (FIG. 5b) [5, 19]: Q4

Cn1c(=O)c2[nH]cnc2n(C)c1=O [Aminophylline, Theophylline]
LPS % cell toxicity (primary rat microglia [1]): 0%
Fibrin % inhibition ([2]; 10 µM): 35%
Fibrin % cell toxicity (primary rat microglia [3]): 1%
LPS % inhibition ([4]; 10 µM): 25%
Quadrant (FIG. 5b) [5]: Q4

Clc1ccc(Nc2nnc(Cc3ccncc3)c3ccccc23)cc1 [Vatalanib]
LPS % cell toxicity (primary rat microglia [1]; rat): 0%
inhibition at 10 µM [2, 17]: -26%
Fibrin % cell toxicity (primary rat microglia [3]; rat): 1%
inhibition at 10 µM [4, 18]: -3%
Quadrant (FIG. 5b) [5, 19]: Q4

CC(C)(Oc1ccc(C2CC2(Cl)Cl)cc1)C(=O)O (centres unmarked) [Ciprofibrate]
LPS % cell toxicity (primary rat microglia [1]; rat): 1%
inhibition at 10 µM [2, 14]: -16%
Fibrin % cell toxicity (primary rat microglia [3]; rat): 0%
inhibition at 10 µM [4, 15]: 16%
Quadrant (FIG. 5b) ([5]; primary HTS, 10 μM): Q4

Cc1cc2c(s1)Nc1ccccc1N=C2N1CCN(C)CC1 [Olanzapine]
LPS % cell toxicity (primary rat microglia [1]; rat): 0%
inhibition at 10 µM [2]: 6%
Fibrin % cell toxicity (primary rat microglia [3]; rat): 1%
inhibition at 10 µM ([4]; 48 h): 9%
Quadrant (FIG. 5b) [5]: Q4

CC(O)C(=O)O (centres unmarked) [Lactic Acid]
LPS % cell toxicity (primary rat microglia [1]; rat): 1%
inhibition at 10 µM [2]: 0%
Fibrin % cell toxicity (primary rat microglia [3]; rat): 1%
inhibition at 10 µM ([4]; 48 h): 14%
Quadrant (FIG. 5b) [5]: Q4

COC1=C(OC)C(=O)C(CCCCCCCCCCO)=C(C)C1=O [Idebenone]
LPS % cell toxicity (primary rat microglia [1]; rat): 0%
inhibition at 10 µM [2, 9]: -24%
Fibrin % cell toxicity (primary rat microglia [3]; rat): 1%
inhibition at 10 µM [4, 10]: 2%
Quadrant (FIG. 5b) [5, 8]: Q4

CC1=C(/C=C/C(C)=C/C=C/C(C)=C\C(=O)O)C(C)(C)CCC1 [Isotretinoin]
LPS % cell toxicity (primary rat microglia [1]; rat): 1%
inhibition at 10 µM [2, 6]: 112%
Fibrin % cell toxicity (primary rat microglia [3]; rat): 13%
inhibition at 10 µM [4, 7]: 55%
Quadrant (FIG. 5b) [5, 8]: Q2
